As a reminder, the viability is a read-out of living cells in per cent, often relative to untreated cells. As a reminder, the IC50 is the concentration that gives 50% inhibition. By DC50 is commonly meant the concentration giving 50% degradation.

Values joined by “and” are separate entries in the source; they are usually repeats but may differ in a detail not shown here. Equal entries are not always repeated. Where two headings read alike, the source gives them in different places.

Data set [1] concerns the target T1, wild-type desmin (Homo sapiens, UniProt P17661).
T1 construct: expressed in transfected cells; host or cells: HeLa, transient
Briefly: WB degradation of wild-type desmin in HeLa cells. It is filed as cell-based. The settings on record: exogenously expressed. The procedure: (§1) Adherent cells were washed with phosphate-buffered saline (PBS) and cell pellets were lysed in SDS-based sample buffer (277.8 mM Tris-HCI, pH 6.8, 4.4% LDS, 44.4% (v/v) glycerol) containing beta-mercaptoethanol. Alternatively, cell pellets or protein supernatants were lysed in 5X Laemmli sample buffer. Whole-cell lysates were separated using SDS-PAGE, and transferred onto polyvinyllidene difluoride membranes at 100 V for 2 h at 4 °C. The membrane was incubated with a blocking solution consisting 4% skim milk in PBS solution for 30 min at room temperature and incubated with primary antibodies overnight, followed by incubation with host-specific HRP-conjugated secondary antibodies (1:10000 dilution). For signal detection, the membrane was developed with a mixture of ECL solution (Thermo Fisher Scientific) using X-ray films. Densitometry of developed bands was measured and analyzed with ImageJ (NIH, Bethesda).
Supplementary Fig. 5. AUTOTACs selectively target pathological aggregation-prone proteins for autophagic degradation. (a) WB in HEK293T cells treated with PBA-1105 (1 μM) and MG132 (1 μM, 24 h) at the indicated time points. (b) ICC of HeLa cells treated with the indicated compounds (1 μM, 24 h). Scale bar, 10 μm. (c) WB in HEK293T cells treated with PBA-1105 (500 nM, 24 h) and MG132 (1 μM, 24 h) under siRNA-mediated knockdown of p62 or ATG7 (20 nM, 48 h). (d) ICC in HeLa cells transiently expressing WIPI2-GFP and treated with Anle138b-F105 (1 μM, 24 h). Scale bar, 10 μm. (e) ICC in HeLa cells treated with […]
nM, 24 h). (g, h) WB in HeLa cells transiently expressing wild type or mutant (L385P) desmin-flag with LacZ-myc and treated with PBA-1105, PBA-1105b or Anle138b-F105 at the […]

Data set [2] addresses tauP301L (Homo sapiens, UniProt P10636, P618L). Briefly: RIPA insoluble/soluble fractionation of brains of hTauP301L-BiFC mice, human tau. Conditions: for AVG (%) Insoluble hTau / AVG (%) Soluble hTau: control 100.
Data set [3] concerns ACHN cells. Briefly: WST-based cell viability assay in ACHN cells. The settings on record: for WST assay raw reading / WST assay viability relative to con = 100: ACHN, duplicates.
The nature of data set [4]: WST-based cell viability assay in ACHN cells. The settings on record: human, ACHN cells; for viability at 0.01 µM / viability at 0.1 µM / viability at 1 µM / viability at 10 µM / viability at 50 µM / viability at 100 µM: ACHN.
Data set [5] deals with T2, androgen receptor (AR) (Homo sapiens, UniProt P10275, T878A).
T2 construct: Targeted autophagic degradation of endogenous oncoproteins by AUTOTAC; endogenous in cells; host or cells: LNCaP
T2 sequence (P10275 1-920 T878A): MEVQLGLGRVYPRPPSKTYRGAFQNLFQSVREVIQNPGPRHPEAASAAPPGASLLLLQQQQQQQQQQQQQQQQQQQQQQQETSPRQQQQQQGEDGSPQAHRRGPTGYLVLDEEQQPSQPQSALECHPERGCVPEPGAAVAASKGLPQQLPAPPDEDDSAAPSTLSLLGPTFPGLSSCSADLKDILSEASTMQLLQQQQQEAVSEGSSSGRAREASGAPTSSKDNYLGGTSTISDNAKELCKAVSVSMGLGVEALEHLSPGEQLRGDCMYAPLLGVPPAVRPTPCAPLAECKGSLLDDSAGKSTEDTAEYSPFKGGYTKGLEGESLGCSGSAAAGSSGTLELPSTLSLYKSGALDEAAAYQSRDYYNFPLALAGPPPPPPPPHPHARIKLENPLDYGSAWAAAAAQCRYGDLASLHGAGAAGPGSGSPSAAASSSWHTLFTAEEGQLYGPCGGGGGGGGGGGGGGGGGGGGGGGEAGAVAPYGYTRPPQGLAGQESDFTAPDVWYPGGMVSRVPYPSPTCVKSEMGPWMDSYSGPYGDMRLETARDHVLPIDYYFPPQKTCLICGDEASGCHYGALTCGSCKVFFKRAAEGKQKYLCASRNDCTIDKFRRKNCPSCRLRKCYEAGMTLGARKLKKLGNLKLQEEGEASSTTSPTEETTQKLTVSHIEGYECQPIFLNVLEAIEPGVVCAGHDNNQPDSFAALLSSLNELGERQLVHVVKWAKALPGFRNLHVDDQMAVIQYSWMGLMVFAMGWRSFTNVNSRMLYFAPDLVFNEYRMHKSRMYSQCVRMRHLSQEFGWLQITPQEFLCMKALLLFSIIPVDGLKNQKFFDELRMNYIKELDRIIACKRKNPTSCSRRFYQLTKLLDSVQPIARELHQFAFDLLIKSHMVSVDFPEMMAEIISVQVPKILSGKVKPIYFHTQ
Briefly: Western blot degradation of AR in LNCaP cells. It is filed as cell-based. Conditions: for DC50: LNCaP prostate cancer cells; for AR normalized to control, AVG % / AR normalized to GAPDH and to control, percentage: LncaP; for AR normalized to GAPDH and to control, percentage: single experiments, listed as Vinclo.-2204. The procedure: as §1
For orientation: A western blot detects proteins with antibodies after separation by electrophoresis.

[6] abbreviates: duplicates, read-out: WST assay viability relative to con = 100.
Where [7] appears, read: read-out: WST assay viability, AVG %.

Chain of tauP301L (P10636 1-441 isoform P10636-8 P301L): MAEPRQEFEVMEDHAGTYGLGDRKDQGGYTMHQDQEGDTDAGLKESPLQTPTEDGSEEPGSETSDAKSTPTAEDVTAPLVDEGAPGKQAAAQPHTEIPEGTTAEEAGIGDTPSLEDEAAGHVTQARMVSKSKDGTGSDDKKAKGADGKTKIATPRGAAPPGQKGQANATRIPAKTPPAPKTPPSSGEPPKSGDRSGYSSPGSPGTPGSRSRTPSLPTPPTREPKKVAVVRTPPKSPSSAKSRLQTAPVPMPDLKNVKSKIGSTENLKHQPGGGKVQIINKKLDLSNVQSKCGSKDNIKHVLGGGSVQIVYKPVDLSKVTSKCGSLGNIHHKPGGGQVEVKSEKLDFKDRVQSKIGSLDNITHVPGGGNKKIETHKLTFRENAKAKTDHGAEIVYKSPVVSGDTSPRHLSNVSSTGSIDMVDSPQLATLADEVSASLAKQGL
T1 sequence (P17661 whole entry): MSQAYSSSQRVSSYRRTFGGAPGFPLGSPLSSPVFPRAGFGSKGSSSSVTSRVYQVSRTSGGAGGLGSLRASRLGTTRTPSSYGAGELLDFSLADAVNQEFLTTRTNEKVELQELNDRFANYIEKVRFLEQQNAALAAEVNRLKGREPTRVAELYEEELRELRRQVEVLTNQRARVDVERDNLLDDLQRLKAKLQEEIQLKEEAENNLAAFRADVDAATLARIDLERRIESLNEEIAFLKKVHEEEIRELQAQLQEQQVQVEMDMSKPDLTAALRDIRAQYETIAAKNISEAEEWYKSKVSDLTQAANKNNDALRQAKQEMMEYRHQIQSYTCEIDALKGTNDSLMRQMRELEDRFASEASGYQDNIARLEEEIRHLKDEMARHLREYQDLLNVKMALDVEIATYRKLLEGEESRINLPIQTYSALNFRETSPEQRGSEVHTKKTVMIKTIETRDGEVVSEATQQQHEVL

Turning to `O=C(CCCc1ccccc1)NCCOCCOCCOCCNCc1ccc(OCc2ccccc2)c(OCc2ccccc2)c1` [PBA-1105], in data set [1], the “degradation of wild-type desmin” value is “not wild-type desmin”. In data set [2] (20 mg/kg), the “AVG (%) Insoluble hTau” value amounted to 43.8995% and the “AVG (%) Soluble hTau” value was 87.1538%. Also, in data set [2] (50 mg/kg), the “AVG (%) Insoluble hTau” value is listed as 10.5836% and the “AVG (%) Soluble hTau” value is on record as 66.7118%. Further, the “soluble tau species in brain” value in data set [2] (hTauP301L-BiFC mice, i.p. 20 or 50 mg/kg) was “little if any reduction”. The “detergent-insoluble tauP301L in brain” value in data set [2] (hTauP301L-BiFC mice, i.p. 20 or 50 mg/kg, three times per week for one month) is recorded as “marked clearance”.
As to `O[C@H](CNCCOCCOCCOc1ccc(-c2c(-c3ccccc3)nn3c(C(F)(F)F)cc(C(F)(F)F)nc23)cc1)COc1ccc(OCc2ccccc2)c(OCCCc2ccccc2)c1` [PHTPP-1304], the “higher cytotoxicity than p62-binding ligand or TBL” value in data set [3] (ACHN cells) is ~ 5 fold. In data set [3] (0.01uM), the “WST assay raw reading” value is 1.001 and 0.98; the “WST assay viability relative to con = 100” value was 98.3465. Also, in data set [3] (0.1uM), the “WST assay raw reading” value was 1.009 and 1.004; the “WST assay viability relative to con = 100” value worked out at 101.115. Further, in data set [3] (1uM), the “WST assay raw reading” value was 0.961 and 0.962; the “WST assay viability relative to con = 100” value came out at 96.2699. Besides, in data set [3] (10uM), the “WST assay raw reading” value is 0.146 and 0.145; the “WST assay viability relative to con = 100” value is reported as 2.019. Further, in data set [3] (50uM), the “WST assay raw reading” value was 0.234 and 0.222; the “WST assay viability relative to con = 100” value stood at 10.9017. In addition, in data set [3] (100uM), the “WST assay raw reading” value is 0.256 and 0.273; the “WST assay viability relative to con = 100” value is recorded as 16.7852. In data set [4] (setting [6]), the viability at 0.01 µM came out at 101%, the viability at 0.1 µM worked out at 102%, the viability at 1 µM is 96.2% and the viability at 10 µM was found to be 2.13%. In data set [4] (setting [6]), the viability at 50 µM stood at 12.3% and the viability at 100 µM is 14.8%. Moreover, in data set [4] (setting [7]), the viability at 0.01 µM was 99.6%, the viability at 0.1 µM came to 101%, the viability at 1 µM was determined as 96.2% and the viability at 10 µM is 2.08%. Besides, in data set [4] (setting [7]), the viability at 50 µM was determined as 11.6% and the viability at 100 µM came to 15.8%. For the same molecule, the IC50 in data set [4] (WST-based viability assay, read-out: cytotoxicity IC50) is 3300 nM.
On to `C=CC(C)(O)C(=O)N(C(=O)NCCOCCOCCNCC(O)COc1ccc(OCCc2ccccc2)c(OCCc2ccccc2)c1)c1cc(Cl)cc(Cl)c1` (centres unmarked) [VinclozolinM2-2204], for which the figures for the half-maximal degradation concentration (DC50) in data set [5] and in data set [5] (listed as Vinclozolin-2204) were approximately 200 nM and 211 nM, respectively. The “AR normalized to control, AVG %” value in data set [5] (10 nM) came out at 98.914%; in data set [5] (50 nM), 121.781%; in data set [5] (100 nM) it was 60.0788%; in data set [5] (0.5 uM), 19.2601%; in data set [5] (1 uM), 23.6569%; in data set [5] (2.5 uM) it was 22.3824%. Moreover, the “AR normalized to control, AVG %” value in data set [5] (10 uM) is listed as 6.006%. Moreover, the “AR normalized to GAPDH and to control, percentage” value in data set [5] (10 nM) is 90.6238% and 111.624% and 94.4939%; in data set [5] (50 nM) it was 119.329% and 128.663% and 117.351%; in data set [5] (100 nM) it was 61.0357% and 62.8026% and 56.3981%; in data set [5] (0.5 uM) it was 14.6016% and 23.3958% and 19.7827%; in data set [5] (10 uM), 9.375% and 3.388% and 5.255%.

Source of the values: PMC8850458, “The AUTOTAC chemical biology platform for targeted protein degradation via the autophagy-lysosome system” (Nature Communications, 2022).
